In patent US8815857B2 (Boehringer Ingelheim International GmbH, priority 2011, dated 2014):
Converted amounts (≈) assume the structure as drawn.

Experiments:
[1] = target: T1, Recombinant human soluble guanylate cyclase (sGC), alpha 1 / beta 1 subunits, heme-free (Homo sapiens, UniProt Q02108+Q02153); test: Molecular assay: cGMP formation by heme-free recombinant sGC (CisBio cGMP detection kit); assay type: biochemical; settings: 300 pM heme-free sGC, 37° C., 60 min, cGMP readout; read-out: EC50 nM, Activity of Compounds in Molecular Assay
T1 construct: histidine tag (C); made in house; host or cells: Sf9 insect cells (baculovirus coinfection)
T1 sequence (Q02108 1-690 partner): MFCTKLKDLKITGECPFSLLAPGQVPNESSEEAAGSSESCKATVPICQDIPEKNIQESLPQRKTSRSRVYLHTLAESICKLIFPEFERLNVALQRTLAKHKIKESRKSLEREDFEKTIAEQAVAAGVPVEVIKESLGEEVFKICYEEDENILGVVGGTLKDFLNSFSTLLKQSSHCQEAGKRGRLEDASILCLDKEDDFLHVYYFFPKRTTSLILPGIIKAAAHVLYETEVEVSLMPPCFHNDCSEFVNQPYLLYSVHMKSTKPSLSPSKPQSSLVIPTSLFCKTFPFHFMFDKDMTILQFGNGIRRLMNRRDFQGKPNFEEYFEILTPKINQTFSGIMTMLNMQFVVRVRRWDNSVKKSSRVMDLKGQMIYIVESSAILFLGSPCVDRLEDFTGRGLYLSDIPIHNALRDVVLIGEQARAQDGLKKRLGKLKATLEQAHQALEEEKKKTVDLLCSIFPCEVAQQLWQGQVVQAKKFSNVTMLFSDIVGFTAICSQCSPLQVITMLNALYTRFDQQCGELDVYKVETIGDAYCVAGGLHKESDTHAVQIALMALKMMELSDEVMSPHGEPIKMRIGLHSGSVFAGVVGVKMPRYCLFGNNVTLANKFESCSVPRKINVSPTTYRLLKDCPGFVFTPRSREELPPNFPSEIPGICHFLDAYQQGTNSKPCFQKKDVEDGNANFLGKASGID
T1 sequence (Q02153 1-619): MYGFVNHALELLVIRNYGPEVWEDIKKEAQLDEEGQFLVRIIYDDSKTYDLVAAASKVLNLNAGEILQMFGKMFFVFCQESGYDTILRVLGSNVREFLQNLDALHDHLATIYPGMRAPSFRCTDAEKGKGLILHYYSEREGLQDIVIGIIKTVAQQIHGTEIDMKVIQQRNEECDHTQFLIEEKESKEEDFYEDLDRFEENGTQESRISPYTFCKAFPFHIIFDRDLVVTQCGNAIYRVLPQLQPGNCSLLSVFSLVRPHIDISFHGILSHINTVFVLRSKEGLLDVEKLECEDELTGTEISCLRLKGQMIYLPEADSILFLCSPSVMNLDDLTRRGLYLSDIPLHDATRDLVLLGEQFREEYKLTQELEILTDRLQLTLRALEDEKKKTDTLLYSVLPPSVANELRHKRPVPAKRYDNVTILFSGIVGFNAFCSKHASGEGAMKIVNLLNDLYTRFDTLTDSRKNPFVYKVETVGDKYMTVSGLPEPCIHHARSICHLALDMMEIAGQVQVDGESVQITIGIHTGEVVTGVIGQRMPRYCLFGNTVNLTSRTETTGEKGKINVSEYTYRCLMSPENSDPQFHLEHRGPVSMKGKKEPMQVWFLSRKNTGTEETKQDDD
Procedure: Recombinant human soluble guanylate cyclase (sGC) is purified from Sf9 insect cells coinfected with baculoviruses expressing the alpha 1 or beta 1 subunit of sGC, both with a C-terminal histidine tag. Heme-free sGC is prepared by treating cell lysate with a final concentration of 0.5% Tween 20 prior to purification on a nickel affinity column.
sGC catalyzes the conversion of guanosine-5′-triphosphate (GTP) to cyclic guanosine monophosphate (cGMP). The activity of sGC is measured in vitro using the commercially available CisBio cGMP detection kit (catalog # 62GM2PEB) in a 384 well format. In brief, 300 pM heme-free sGC is incubated in reaction buffer (50 mM MOPS pH 6.8, 0.2 N KOH, 50 mM NaCl, 2 mM MgCl2, 0.1% BSA, 1.25 mM IBMX, 0.25 mM TCEP, 50 nM GTP) in the presence or absence of dilutions of test compounds diluted in DMSO (final concentration of 1%) in a volume of 10 microL at 37° C. for 60 min. Undiluted reaction products or an 80-fold dilution of reaction products (10 microL of either) prepared in reaction buffer containing 0.2 mM TCEP and 10 mM EDTA is mixed with 5 microL of d2-cGMP plus 5 microL of Eu^3+ cryptate-labeled anti-cGMP, each diluted in buffer containing 0.1 M KPO4 pH 7.5, 0.4 M KF, 20 mM EDTA, 0.2% BSA. After a one h incubation at room temperature in the dark, the mixtures are quantified on an EnVision plate reader (PerkinElmer) according to manufacturer instructions (laser excitation 337 nm, emission 620 and 665 nm). The ratio at each compound concentration is converted to nM cGMP using the linear portion of a calibration curve. Log compound concentration is plotted against combined undiluted and diluted nM cGMP values to determine the EC50 for each curve.

[2] = Assessment of solubility: HT solubility in pION buffer, UV spectrophotometry; settings: 16-19 h incubation, 1.0% DMSO; for solubility: pION system solution buffer, kinetic from dmso stock
[3] = pH 4.5, pH 4.5, aqueous buffer, Solubility (pH 4.5), pH 4.5 buffer
[4] = pH 7.4, pH 7.4, aqueous buffer, Solubility (pH 7.4), pH 7.4 buffer

Row | SMILES | EC50 [1] | solubility [2, 3] | solubility [2, 4] | Solubility (pH 4.5) ([2]; pH 4.5 buffer)
1 | Cc1ccc(OCc2ccc(C(=O)N3CCCCC3)cc2C)c(-c2csc(C3=CCC(C(=O)O)CC3)n2)c1 (stereo not drawn) [Compound 32] | 310 nM | 0.15 µg/mL (≈ 0.283 µM) | 29 µg/mL (≈ 54.6 µM) | –
2 | Cc1cc(CN2CCOCC2)ccc1COc1ccc(C#N)cc1-c1csc(N2CC3C(C2)C3C(=O)O)n1 (stereo not drawn) [Compound 33] | 7800 nM | > 60 µg/mL | > 60 µg/mL | –
3 | Cc1ccc(OCc2ccc(C(=O)N3CCCCC3)cc2C)c(-c2csc(N3CC4C(C3)C4C(=O)O)n2)c1 (stereo not drawn) [Compound 34] | 390 nM | 0.9 µg/mL (≈ 1.69 µM) | > 53 µg/mL | –
4 | Cc1cc(CN2CCOCC2)ccc1COc1c(C#N)cccc1-c1csc(N2CCC(C(=O)O)CC2)n1 [Compound 35] | 280 nM | > 53 µg/mL | > 53 µg/mL | –
5 | Cc1cccc(-c2csc(N3CCC(C(=O)O)CC3)n2)c1OCc1ccc(CN2CCOCC2)cc1C#N [Compound 36] | 140 nM | > 64 µg/mL | > 64 µg/mL | –
6 | Cc1ccc(OCc2ccc(C(=O)N3CCCCC3)cc2C)c(-c2csc([C@H]3CC[C@@H](C(=O)O)CC3)n2)c1 [Compound 37] | 2100 nM | 0.15 µg/mL (≈ 0.282 µM) | > 53 µg/mL | –
7 | Cc1ccc(OCc2ccc(C(=O)N3CCCCC3)cc2C)c(-c2csc([C@H]3CC[C@H](C(=O)O)CC3)n2)c1 [Compound 38] | 1700 nM | 0.25 µg/mL (≈ 0.469 µM) | > 53 µg/mL | –
8 | Cc1ccc(OCc2ccc(C(=O)N3CCCCC3)cc2C)c(-c2csc(N3CCC(C(=O)O)CC3)n2)c1 [Compound 39] | 27 nM | 0.95 µg/mL (≈ 1.78 µM) | > 53 µg/mL | –
9 | Cc1ccc(OCc2ccc(C(=O)N3CCCCC3)cc2C)c(-c2csc(N[C@H]3CC[C@@H](C(=O)O)C3)n2)c1 [Compound 40, (1R,3S)-3-[[4-[5-methyl-2-[[2-methyl-4-(piperidine-1-carbonyl)phenyl]methoxy]phenyl]thiazol-2-yl]amino]cyclopentanecarboxylic acid] | 2600 nM | 2.3 µg/mL (≈ 4.31 µM) | > 53 µg/mL | –
10 | Cc1cc(C(=O)N2CCCCC2)ccc1COc1ccccc1-c1csc(N2CCC(C(=O)O)CC2C)n1 (stereo not drawn) [Compound 41] | 70 nM | 1.1 µg/mL (≈ 2.06 µM) | > 53 µg/mL | –
11 | Cc1cc(C(=O)N2CCCCC2)ccc1COc1ccccc1-c1csc(N2CCC(C(=O)O)C(C)C2)n1 (stereo not drawn) [Compound 42] | 51 nM | 0.45 µg/mL (≈ 0.843 µM) | > 53 µg/mL | –
12 | Cc1cc(CN2CCOCC2)ccc1COc1ccccc1-c1csc(N2CC3CCC(C2)C3C(=O)O)n1 (stereo not drawn) [Compound 43] | 63 nM | > 60 µg/mL | > 60 µg/mL | –
13 | Cc1cc(CN2CCOCC2)ccc1COc1ccccc1-c1csc(N2C3CCC2CC(C(=O)O)C3)n1 (stereo not drawn) [Compound 44] | 760 nM | > 60 µg/mL | > 60 µg/mL | –
14 | Cc1ccc(OCc2ccc(CNC3CCCCC3)cc2C)c(-c2csc(N3CCC(C(=O)O)CC3)n2)c1 [Compound 45] | 730 nM | > 64 µg/mL | 35 µg/mL (≈ 65.6 µM) | –
15 | COCCN(C)Cc1ccc(COc2ccc(C)cc2-c2csc(N3CCC(C(=O)O)CC3)n2)c(C#N)c1 [Compound 46] | 260 nM | > 64 µg/mL | > 64 µg/mL | –
16 | Cc1ccc(OCc2ccc(CNC(C)(C)CO)cc2C#N)c(-c2csc(N3CCC(C(=O)O)CC3)n2)c1 [Compound 47] | 4000 nM | > 64 µg/mL | > 64 µg/mL | –

Row | SMILES | EC50 [1] | solubility [2, 3] | solubility [2, 4] | Solubility (pH 4.5) ([2]; pH 4.5 buffer)
17 | Cc1cc(C(=O)N2CCCCC2)ccc1COc1ccc(F)cc1-c1csc(C2=CCC(C(=O)O)CC2)n1 (stereo not drawn) [Compound 48] | 360 nM | – | 27 µg/mL (≈ 50.5 µM) | 0.1 μg/mL
18 | Cc1ccc(OCc2ccc(C(=O)N3CCOCC3)cc2C)c(-c2csc(N3CCC(C(=O)O)CC3)n2)c1 [Compound 49] | 130 nM | 13 µg/mL (≈ 24.3 µM) | > 53 µg/mL | –
19 | Cc1ccc(OCc2ccc(CN3CCOCC3)cc2C)c(-c2csc(N3CCC(C)(C(=O)O)CC3)n2)c1 [Compound 51] | 1100 nM | > 58 µg/mL | 31 µg/mL (≈ 57.9 µM) | –
20 | Cc1ccc(OCc2ccc(CN3CCOCC3)cc2C)c(-c2csc(N3CCCC(C(=O)O)CC3)n2)c1 (stereo not drawn) [Compound 52] | 39 nM | > 58 µg/mL | > 58 µg/mL | –
21 | Cc1cc(CN2CCCC(O)C2)ccc1COc1c(C)cccc1-c1csc(N2CCC(C(=O)O)CC2)n1 (stereo not drawn) [Compound 53] | 640 nM | > 53 µg/mL | > 53 µg/mL | –
22 | Cc1cc(CN2CCC(O)CC2)ccc1COc1c(C)cccc1-c1csc(N2CCC(C(=O)O)CC2)n1 [Compound 54] | 2000 nM | 16 µg/mL (≈ 29.9 µM) | 16 µg/mL (≈ 29.9 µM) | –
23 | Cc1cc(C(=O)N2CCCCC2)ccc1COc1ccc(F)cc1-c1csc(N2CC3C(C2)C3C(=O)O)n1 (stereo not drawn) [Compound 55] | 360 nM | 0.3 µg/mL (≈ 0.56 µM) | > 53 µg/mL | –
24 | Cc1cc(C(=O)N2CCCCC2)ccc1COc1ccc(F)cc1-c1csc([C@H]2CC[C@@H](C(=O)O)CC2)n1 [Compound 56] | 1600 nM | 0.2 µg/mL (≈ 0.373 µM) | 29 µg/mL (≈ 54 µM) | –
25 | Cc1cc(C(=O)N2CCCCC2)ccc1COc1ccc(F)cc1-c1csc([C@H]2CC[C@H](C(=O)O)CC2)n1 [Compound 57] | 1800 nM | – | > 53 µg/mL | 0.1 μg/mL
26 | Cc1cc(CN2CCOCC2)ccc1COc1ccc(F)cc1-c1csc(N2CCC(C(=O)O)C(C)C2)n1 (stereo not drawn) [Compound 58] | 480 nM | 44 µg/mL (≈ 81.5 µM) | > 61 µg/mL | –
27 | Cc1cc(C(=O)N2CCCCC2)ccc1COc1ccc(F)cc1-c1csc(N2CCC(C(=O)O)CC2)n1 [Compound 59] | 39 nM | 0.5 µg/mL (≈ 0.93 µM) | > 53 µg/mL | –
28 | Cc1ccc(OCc2ccc(CN3CCOCC3)cc2C)c(-c2csc(N3CCC(F)(C(=O)O)CC3)n2)c1 [Compound 60] | 1200 nM | > 58 µg/mL | > 58 µg/mL | –
29 | Cc1cc(CN2CCOCC2)ccc1COc1ccc(F)cc1-c1csc(N2CCC(C(=O)O)CC2C)n1 (stereo not drawn) [Compound 61] | 440 nM | 44 µg/mL (≈ 81.5 µM) | > 61 µg/mL | –
30 | Cc1cc(CN2CCOCC2)ccc1COc1c(Cl)cccc1-c1csc(N2CCC(C(=O)O)CC2)n1 [Compound 62] | 22 nM | 30 µg/mL (≈ 55.3 µM) | > 65 µg/mL | –
31 | Cc1cc(CN2CCOCC2)ccc1COc1ccc(Cl)cc1-c1csc(N2CCC(C(=O)O)CC2)n1 [Compound 63] | 110 nM | 30 µg/mL (≈ 55.3 µM) | 32 µg/mL (≈ 59 µM) | –
